Among the data in patent US20230393140A1, “BINDING ASSAYS INVOLVING A PLURALITY OF SYNTHETIC COMPOUNDS, TARGETS, AND COUNTER TARGETS” (SRI International, priority 2020, published 2023) are Kd values, retold here.

The target in this assay is TNFα (Homo sapiens, UniProt P01375). Briefly: MST binding affinity of resynthesized NNP hits to TNFα. Details: purchased R&D Systems, Inc. 210-TA/CF. The following applies: read-out: KD (nM) [95% conf. int], NNP2 library hit, target TNFα, one-site binding model. As for the experimental part: Hit binding affinity to various targets were determined using Microscale Thermophoresis (MST). MST experiments were performed on a Monolith NT.115pico (NanoTemper Technologies GmbH, Munich, Germany). Measurements were performed at room temperature, in triplicate with incubation periods of 15, 30 and 45 minutes. […] Targets were labeled using Nanotemper Monolith 2nd Generation Protein Labeling Kits. RED-MALEIMIDE (Maleimide-647-dye) labeling kit was used for K-Ras and RED-NHS (NHS-647-dye) labeling kit was used for IL-6, IL-6R, TNFα and ASGPR. The buffer for the ASGPR contained 20 mM HEPES pH 7.4, 150 mM NaCl, 10 mM MgCl2, 2 mM CaCl2, 0.05% Pluronic F-127, and 1 mM DTT; for IL-6 contained 20 mM HEPES pH 7.4, 150 mM KCl, 10 mM MgCl2, and 0.1% Pluronic F-127; for the soluble IL-6 receptor 20 mM HEPES pH 7.4, 150 mM NaCl, 10 mM MgCl2, and 0.05% Tween-20; for K-Ras 20 mM HEPES pH 7.4, 150 mM NaCl, 10 mM MgCl2, 0.05% Tween-20 and 1 mM DTT; for TNFα 10 mM HEPES pH 7.4, 150 mM NaCl, 10 mM MgCl2, 0.05% Polysorbate-20. Triplicate data was analyzed using MO.AffinityAnalysis software (NanoTemper Technologies GmbH).

Numbered stars: 1 amine (or outer) side, 2 acyl side, 3 side chain; on linkers, the order of the positions; unused ones are H or OH. Square brackets hold non-standard residues; d marks the D form. Peptide text beside a SMILES is read from it. * marks the point of attachment. 5FAM = O=C1OC2(c3ccc(O)cc3Oc3cc(O)ccc32)c2ccc(C(=O)*)cc21; NHCH2C6H4(4-CH2CONH2) = NC(=O)Cc1ccc(CN*)cc1; X1 = O=C(Cc1ccc(CN[*:1])cc1)[*:2]

Sequence of TNFα (P01375 77-233 limits assumed): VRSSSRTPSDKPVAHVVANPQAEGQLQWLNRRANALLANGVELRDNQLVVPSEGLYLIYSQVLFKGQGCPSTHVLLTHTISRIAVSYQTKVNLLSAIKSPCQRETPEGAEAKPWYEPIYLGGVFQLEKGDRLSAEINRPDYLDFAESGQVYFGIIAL

As usually defined, the Kd is the constant that tells how readily two partners part at equilibrium. In the case of `CC(C)C[C@H](NC(=O)[C@@H](CCCNC(=N)N)NC(=O)CNC(=O)Cc1ccc(CNC(=O)[C@H](CC(C)C)NC(=O)[C@H](NC(=O)[C@@H](CCCCN)NC(=O)c2ccc3c(c2)C(=O)OC32c3ccc(O)cc3Oc3cc(O)ccc32)C(C)C)cc1)C(=O)NCc1ccc(CC(=O)N[C@H](CCCNC(=N)N)C(=O)N[C@@H](C(=O)N[C@@H](CC(C)C)C(=O)NCc2ccc(CC(=O)N[C@H](Cc3c[nH]c4ccccc34)C(=O)N[C@H](CCCNC(=N)N)C(=O)N[C@@H](CC(C)C)C(=O)NCc3ccc(CC(=O)N[C@H](Cc4c[nH]c5ccccc45)C(=O)N[C@H](CCCNC(=N)N)C(=O)N[C@H](C(=O)NCc4ccc(CC(=O)N[C@H](CO)C(=O)N[C@H](CO)C(=O)N[C@@H](Cc5ccccc5)C(=O)NCc5ccc(CC(=O)N[C@H](C)C(=O)N[C@H](CO)C(=O)N[C@@H](Cc6ccccc6)C(=O)NCc6ccc(CC(=O)N[C@H](Cc7c[nH]c8ccccc78)C(=O)N[C@H](CCCCN)C(=O)N[C@@H](CC(C)C)C(=O)NCc7ccc(CC(=O)N[C@H](Cc8ccc(O)cc8)C(=O)N[C@H](CCCNC(=N)N)C(=O)N[C@@H](Cc8ccccc8)C(=O)NCc8ccc(CC(N)=O)cc8)cc7)cc6)cc5)cc4)C(C)C)cc3)cc2)C(C)C)cc1` [TNF-39-9] (5FAM-[dK][dV]L[X1]G[dR]L[X1][dR][dV]L[X1][dW][dR]L[X1][dW][dR]V[X1][dS][dS]F[X1][dA][dS]F[X1][dW][dK]L[X1][dY][dR]F-{NHCH2C6H4(4-CH2CONH2)}), the equilibrium dissociation constant (Kd) is 150 nM.
For `CC(C)C[C@H](NC(=O)[C@@H](CCCNC(=N)N)NC(=O)[C@@H](CCC(=O)O)NC(=O)Cc1ccc(CNC(=O)[C@H](Cc2ccccc2)NC(=O)CNC(=O)[C@@H](C)NC(=O)Cc2ccc(CNC(=O)[C@@H](NC(=O)[C@@H](CCCNC(=N)N)NC(=O)[C@H]3CCCN3C(=O)Cc3ccc(CNC(=O)[C@@H](NC(=O)[C@@H](CCC(=O)O)NC(=O)[C@@H](Cc4ccccc4)NC(=O)Cc4ccc(CNC(=O)[C@H](Cc5ccccc5)NC(=O)[C@@H](C)NC(=O)[C@@H](C)NC(=O)Cc5ccc(CNC(=O)[C@H](CC(C)C)NC(=O)[C@H](NC(=O)[C@@H](CCCCN)NC(=O)c6ccc7c(c6)C(=O)OC76c7ccc(O)cc7Oc7cc(O)ccc76)C(C)C)cc5)cc4)C(C)C)cc3)C(C)C)cc2)cc1)C(=O)NCc1ccc(CC(=O)N2CCC[C@@H]2C(=O)N[C@@H](C(=O)NCC(=O)NCc2ccc(CC(=O)N[C@H](Cc3c[nH]c4ccccc34)C(=O)N[C@H](CCCCN)C(=O)N[C@@H](CC(C)C)C(=O)NCc3ccc(CC(=O)N4CCC[C@@H]4C(=O)N[C@H](C)C(=O)N[C@@H](C)C(=O)NCc4ccc(CC(N)=O)cc4)cc3)cc2)C(C)C)cc1` [TNF-39-10] (5FAM-[dK][dV]L[X1][dA][dA]F[X1][dF][dE]V[X1][dP][dR]V[X1][dA]GF[X1][dE][dR]L[X1][dP][dV]G[X1][dW][dK]L[X1][dP][dA]A-{NHCH2C6H4(4-CH2CONH2)}), the dissociation constant (Kd) was 38 nM.
In the case of `CC(C)C[C@H](NC(=O)[C@@H](CCCNC(=N)N)NC(=O)[C@@H](CCC(=O)O)NC(=O)Cc1ccc(CNC(=O)[C@H](C)NC(=O)[C@@H](CCCCN)NC(=O)[C@@H](Cc2ccc(O)cc2)NC(=O)Cc2ccc(CNC(=O)[C@H](C)NC(=O)[C@@H](CCCNC(=N)N)NC(=O)[C@@H](Cc3ccccc3)NC(=O)Cc3ccc(CNC(=O)[C@H](CC(C)C)NC(=O)[C@H](NC(=O)[C@@H](CCCNC(=N)N)NC(=O)Cc4ccc(CNC(=O)[C@H](CC(C)C)NC(=O)[C@@H](CCCNC(=N)N)NC(=O)[C@@H](CC(C)C)NC(=O)Cc5ccc(CNC(=O)[C@H](CC(C)C)NC(=O)[C@H](NC(=O)[C@@H](CCCCN)NC(=O)c6ccc7c(c6)C(=O)OC76c7ccc(O)cc7Oc7cc(O)ccc76)C(C)C)cc5)cc4)C(C)C)cc3)cc2)cc1)C(=O)NCc1ccc(CC(=O)N2CCC[C@@H]2C(=O)N[C@@H](C(=O)NCC(=O)NCc2ccc(CC(=O)N[C@H](CCCCN)C(=O)N[C@H](Cc3ccccc3)C(=O)N[C@@H](Cc3ccccc3)C(=O)NCc3ccc(CC(=O)N[C@H](Cc4c[nH]cn4)C(=O)N[C@H](CCC(=O)O)C(=O)N[C@H](C(=O)NCc4ccc(CC(N)=O)cc4)C(C)C)cc3)cc2)C(C)C)cc1` [TNF-31-15] (5FAM-[dK][dV]L[X1][dL][dR]L[X1][dR][dV]L[X1][dF][dR]A[X1][dY][dK]A[X1][dE][dR]L[X1][dP][dV]G[X1][dK][dF]F[X1][dH][dE]V-{NHCH2C6H4(4-CH2CONH2)}), the dissociation constant (Kd) was found to be 23 nM.
With `CC(C)C[C@H](NC(=O)[C@@H](CCCNC(=N)N)NC(=O)[C@@H](Cc1c[nH]c2ccccc12)NC(=O)Cc1ccc(CNC(=O)[C@H](CC(C)C)NC(=O)[C@@H](CCCCN)NC(=O)[C@@H](CC(C)C)NC(=O)Cc2ccc(CNC(=O)[C@H](CC(C)C)NC(=O)[C@@H](CCCNC(=N)N)NC(=O)[C@@H](CC(C)C)NC(=O)Cc3ccc(CNC(=O)[C@H](Cc4ccccc4)NC(=O)[C@@H](CC(C)C)NC(=O)[C@H](NC(=O)c4ccc5c(c4)C(=O)OC54c5ccc(O)cc5Oc5cc(O)ccc54)[C@H](C)O)cc3)cc2)cc1)C(=O)NCc1ccc(CC(=O)N[C@H](C)C(=O)N[C@H](CCCCN)C(=O)N[C@@H](Cc2ccccc2)C(=O)NCc2ccc(CC(=O)N[C@H](CCC(=O)O)C(=O)N[C@H](CO)C(=O)N[C@H](C(=O)NCc3ccc(CC(=O)N4CCC[C@@H]4C(=O)N[C@@H](C(=O)NCC(=O)NCc4ccc(CC(=O)N[C@H](CCC(=O)O)C(=O)N[C@H](Cc5ccc(O)cc5)C(=O)N[C@@H](Cc5ccccc5)C(=O)NCc5ccc(CC(=O)N[C@H](Cc6ccc(O)cc6)C(=O)N[C@H](CCCNC(=N)N)C(=O)N[C@@H](Cc6ccccc6)C(=O)NCc6ccc(CC(N)=O)cc6)cc5)cc4)C(C)C)cc3)C(C)C)cc2)cc1` [TNF-31-4] (5FAM-[dT][dL]F[X1][dL][dR]L[X1][dL][dK]L[X1][dW][dR]L[X1][dA][dK]F[X1][dE][dS]V[X1][dP][dV]G[X1][dE][dY]F[X1][dY][dR]F-{NHCH2C6H4(4-CH2CONH2)}), the Kd was determined as 33 nM.
On to `CC(C)C[C@H](NC(=O)[C@@H](CCCNC(=N)N)NC(=O)CNC(=O)Cc1ccc(CNC(=O)[C@H](CC(C)C)NC(=O)[C@H](NC(=O)[C@@H](CCCCN)NC(=O)c2ccc3c(c2)C(=O)OC32c3ccc(O)cc3Oc3cc(O)ccc32)C(C)C)cc1)C(=O)NCc1ccc(CC(=O)N[C@H](Cc2ccccc2)C(=O)N[C@H](CCC(=O)O)C(=O)N[C@H](C(=O)NCc2ccc(CC(=O)N3CCC[C@@H]3C(=O)N[C@H](CCCNC(=N)N)C(=O)N[C@H](C(=O)NCc3ccc(CC(=O)N[C@H](C)C(=O)N[C@H](CCCCN)C(=O)N[C@@H](Cc4ccccc4)C(=O)NCc4ccc(CC(=O)N[C@H](CCC(=O)O)C(=O)N[C@H](CO)C(=O)N[C@H](C(=O)NCc5ccc(CC(=O)N6CCC[C@@H]6C(=O)N[C@@H](C(=O)NCC(=O)NCc6ccc(CC(=O)N[C@@H](C(=O)N[C@H](Cc7c[nH]cn7)C(=O)N[C@@H](CC(C)C)C(=O)NCc7ccc(CC(=O)N[C@H](Cc8ccc(O)cc8)C(=O)N[C@H](CCCNC(=N)N)C(=O)N[C@@H](Cc8ccccc8)C(=O)NCc8ccc(CC(N)=O)cc8)cc7)[C@H](C)O)cc6)C(C)C)cc5)C(C)C)cc4)cc3)C(C)C)cc2)C(C)C)cc1` [TNF-31-5] (5FAM-[dK][dV]L[X1]G[dR]L[X1][dF][dE]V[X1][dP][dR]V[X1][dA][dK]F[X1][dE][dS]V[X1][dP][dV]G[X1][dT][dH]L[X1][dY][dR]F-{NHCH2C6H4(4-CH2CONH2)}), for which the Kd worked out at 24 nM.
With `CC(C)C[C@H](NC(=O)[C@@H](CCCNC(=N)N)NC(=O)CNC(=O)Cc1ccc(CNC(=O)[C@H](CC(C)C)NC(=O)[C@@H](CC(C)C)NC(=O)[C@@H](Cc2ccc(O)cc2)NC(=O)c2ccc3c(c2)C(=O)OC32c3ccc(O)cc3Oc3cc(O)ccc32)cc1)C(=O)NCc1ccc(CC(=O)N[C@H](Cc2ccccc2)C(=O)N[C@H](CCC(=O)O)C(=O)N[C@H](C(=O)NCc2ccc(CC(=O)N[C@H](Cc3c[nH]c4ccccc34)C(=O)N[C@H](CCCNC(=N)N)C(=O)N[C@@H](CC(C)C)C(=O)NCc3ccc(CC(=O)N[C@H](Cc4c[nH]c5ccccc45)C(=O)N[C@H](CCCNC(=N)N)C(=O)N[C@H](C(=O)NCc4ccc(CC(=O)N[C@H](CCCNC(=N)N)C(=O)N[C@H](Cc5ccc(O)cc5)C(=O)N[C@@H](CC(C)C)C(=O)NCc5ccc(CC(=O)N6CCC[C@@H]6C(=O)NCC(=O)N[C@H](C(=O)NCc6ccc(CC(=O)N[C@H](Cc7c[nH]cn7)C(=O)N[C@H](CO)C(=O)N[C@@H](CC(C)C)C(=O)NCc7ccc(CC(=O)N[C@H](Cc8ccccc8)C(=O)N[C@H](CCCCN)C(=O)NCC(=O)NCc8ccc(CC(N)=O)cc8)cc7)cc6)C(C)C)cc5)cc4)C(C)C)cc3)cc2)C(C)C)cc1` [TNF-39-2] (5FAM-[dY][dL]L[X1]G[dR]L[X1][dF][dE]V[X1][dW][dR]L[X1][dW][dR]V[X1][dR][dY]L[X1][dP]GV[X1][dH][dS]L[X1][dF][dK]G-{NHCH2C6H4(4-CH2CONH2)}), the Kd was 200 nM.
